We go through eight molecules from ChEMBL document CHEMBL1121613.

The assay addresses Adrenergic receptor alpha (Homo sapiens) (UniProt P35348+P08913+P18825+P25100+P35368+P18089). Nature of the assay: Blocking activity towards Alpha adrenergic receptor of rabbit aortic tissue preparation was determined. Particulars: Oryctolagus cuniculus; target entry is the homologue from another species.
With `C[C@@H]1CN=C(Cc2cccc3ccccc23)N1`, the -Log KB turned out to be 5.6.
The value for `c1ccc(C[C@@H]2CN=C(Cc3cccc4ccccc34)N2)cc1` was 6.34; that for `C[C@@H]1CN=C(Nc2c(Cl)cccc2Cl)N1` was 5.08; that for `c1ccc(CC2NC[C@H](Cc3ccccc3)N2)cc1` (stereo partly drawn) was 5.
Consider `C[C@H]1CN=C(Nc2c(Cl)cccc2Cl)N1`, for which the -Log KB was determined as 5.27.
Molecule `c1ccc(CC2NC[C@@H](Cc3ccccc3)N2)cc1` (stereo partly drawn) came in with a -Log KB of 4.98.
The molecule `c1ccc(C[C@H]2CN=C(Cc3cccc4ccccc34)N2)cc1` gave a -Log KB of 6.57.
The molecule `C[C@H]1CN=C(Cc2cccc3ccccc23)N1` showed a -Log KB of 5.76.
